Data as given in PubChem BioAssay AID248 (DTP/NCI, 2004).
Inconclusive results and toxic doses are left out. Rule as the data show it: active = T/C of 150% or more; inactive = T/C below 125%. Square brackets hold non-standard residues; d marks the D form. Peptide text beside a SMILES is read from it. ξ: configuration not given here. ξF = NC(Cc1ccccc1)C(=O)O

Tested on: L1210 leukemia ip in BDF1 mice, survival T/C
Assay: NCI In Vivo Anticancer Drug Screen. Data for tumor model L1210 Leukemia (intraperitoneal) in B6D2F1 (BDF1) mice
Conditions: higher = longer survival
How it was run: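 Read-out is survival time, reported as the treated-group measurement over the vehicle-control measurement.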

[1] = endpoint: mean survival time, dose: 100.0 mg/kg/injection, schedule: Q01DX001 (ip), vehicle: saline
[2] = endpoint: mean survival time, dose: 200.0 mg/kg/injection, schedule: Q01DX001 (ip), vehicle: saline
[3] = endpoint: mean survival time, dose: 400.0 mg/kg/injection, schedule: Q01DX001 (ip), vehicle: saline
[4] = endpoint: mean survival time, dose: 200.0 mg/kg/injection, schedule: Q04DX003 (ip), vehicle: Klucel (hydroxypropylcellulose) (HPC)
[5] = endpoint: mean survival time, dose: 100.0 mg/kg/injection, schedule: Q01DX009 (ip), vehicle: saline with Tween-80
[6] = endpoint: mean survival time, dose: 100.0 mg/kg/injection, schedule: Q04DX003 (ip), vehicle: saline with Tween-80
[7] = endpoint: mean survival time, dose: 200.0 mg/kg/injection, schedule: Q01DX009 (ip), vehicle: saline with Tween-80
[8] = endpoint: mean survival time, dose: 200.0 mg/kg/injection, schedule: Q04DX003 (ip), vehicle: saline with Tween-80
[9] = endpoint: mean survival time, dose: 400.0 mg/kg/injection, schedule: Q01DX009 (ip), vehicle: saline with Tween-80
[10] = endpoint: mean survival time, dose: 400.0 mg/kg/injection, schedule: Q04DX003 (ip), vehicle: saline with Tween-80
[11] = endpoint: mean survival time, dose: 100.0 mg/kg/injection, schedule: Q04DX003 (ip), vehicle: Klucel (hydroxypropylcellulose) (HPC)
[12] = endpoint: mean survival time, dose: 100.0 mg/kg/injection, schedule: Q04DX002 (ip), vehicle: Klucel (hydroxypropylcellulose) (HPC)
[13] = endpoint: mean survival time, dose: 200.0 mg/kg/injection, schedule: Q04DX002 (ip), vehicle: Klucel (hydroxypropylcellulose) (HPC)
[14] = endpoint: mean survival time, dose: 400.0 mg/kg/injection, schedule: Q04DX002 (ip), vehicle: Klucel (hydroxypropylcellulose) (HPC)
[15] = endpoint: mean survival time, dose: 100.0 mg/kg/injection, schedule: Q01DX001 (ip), vehicle: carboxymethylcellulose (CMC)
[16] = endpoint: mean survival time, dose: 200.0 mg/kg/injection, schedule: Q01DX001 (ip), vehicle: carboxymethylcellulose (CMC)
[17] = endpoint: mean survival time, dose: 400.0 mg/kg/injection, schedule: Q01DX001 (ip), vehicle: carboxymethylcellulose (CMC)
[18] = endpoint: mean survival time, dose: 50.0 mg/kg/injection, schedule: Q01DX001 (ip), vehicle: saline
[19] = endpoint: mean survival time, dose: 200.0 mg/kg/injection, schedule: Q01DX009 (ip), vehicle: Klucel (hydroxypropylcellulose) (HPC)
[20] = endpoint: mean survival time, dose: 400.0 mg/kg/injection, schedule: Q01DX009 (ip), vehicle: Klucel (hydroxypropylcellulose) (HPC)

Measured: T/C

CCCCNC(C)(C)CO
inactive: endpoint: mean survival time, dose: 12.5 mg/kg/injection, schedule: Q01DX009 (ip), vehicle: saline 106 % of control | endpoint: mean survival time, dose: 12.5 mg/kg/injection, schedule: Q04DX003 (ip), vehicle: saline 100 % of control | endpoint: mean survival time, dose: 25.0 mg/kg/injection, schedule: Q01DX009 (ip), vehicle: saline 112 % of control | endpoint: mean survival time, dose: 25.0 mg/kg/injection, schedule: Q04DX003 (ip), vehicle: saline 97 % of control | endpoint: mean survival time, dose: 50.0 mg/kg/injection, schedule: Q01DX009 (ip), vehicle: saline 109 % of control | endpoint: mean survival time, dose: 50.0 mg/kg/injection, schedule: Q04DX003 (ip), vehicle: saline 102 % of control | endpoint: mean survival time, dose: 75.0 mg/kg/injection, schedule: Q01DX009 (ip), vehicle: saline 105 % of control

COC1OC(Cn2cc(-c3ccccc3)nn2)C(OC(C)=O)C(OC(C)=O)C1OC(C)=O (configuration not stated)
inactive: endpoint: mean survival time, dose: 100.0 mg/kg/injection, schedule: Q01DX005 (ip), vehicle: saline 100 % of control | endpoint: mean survival time, dose: 200.0 mg/kg/injection, schedule: Q01DX005 (ip), vehicle: saline 96 % of control

Nc1ccc(N=Nc2ccc(S(N)(=O)=O)cc2)c(N)n1
inactive: [1] 107 % of control | [2] 114 % of control | [3] 104 % of control

Cc1cc(C)n(/N=C/c2ccc3c(c2)CCC3)c(=O)c1C#N
inactive: [4] 95 % of control | endpoint: mean survival time, dose: 400.0 mg/kg/injection, schedule: Q04DX003 (ip), vehicle: Klucel (hydroxypropylcellulose) (HPC) 90 % of control

CC1OC(O[C@@H]2C=C3CC[C@@H]4[C@H](CC[C@]5(C)[C@@H](c6ccc(=O)oc6)CC[C@]45O)[C@@]3(C)CC2)C(O)C(O)C1O (some centres not stated)
inactive: endpoint: mean survival time, dose: 10.0 mg/kg/injection, schedule: Q01DX001 (ip), vehicle: saline 101 % of control

Cc1nc(N)c(=O)[nH]c1C
inactive: endpoint: mean survival time, dose: 100.0 mg/kg/injection, schedule: Q01DX001 (ip), vehicle: Klucel (hydroxypropylcellulose) (HPC) 104 % of control | [5] 90 % of control | [6] 100 % of control | endpoint: mean survival time, dose: 200.0 mg/kg/injection, schedule: Q01DX001 (ip), vehicle: Klucel (hydroxypropylcellulose) (HPC) 97 % of control | [7] 112 % of control | [8] 105 % of control | endpoint: mean survival time, dose: 400.0 mg/kg/injection, schedule: Q01DX001 (ip), vehicle: Klucel (hydroxypropylcellulose) (HPC) 97 % of control | [9] 104 % of control | [10] 114 % of control

Clc1ccccc1/C=N/Nc1c2ccccc2nc2ccccc12
inactive: [3] 87 % of control

O=C(/C=C(\c1ccccc1)N1CC1)c1ccccc1
inactive: [11] 106 % of control | [4] 110 % of control

C/C(=N\N=C(N)N)c1cccs1
inactive: endpoint: mean survival time, dose: 7.0 mg/kg/injection, schedule: Q01DX Z (oral), vehicle: carboxymethylcellulose (CMC) 101 % of control | endpoint: mean survival time, dose: 15.0 mg/kg/injection, schedule: Q01DX Z (oral), vehicle: carboxymethylcellulose (CMC) 91 % of control

COc1c2c(c(OC)c3c1C(=O)c1ccccc1C3=O)CC(C(C)=O)CC2 (configuration not stated)
inactive: [6] 94 % of control | [8] 92 % of control | [10] 92 % of control

O=C(c1ccccc1)C(O)(c1ccccc1)c1ccccc1
inactive: [12] 89 % of control | [13] 107 % of control | [14] 93 % of control

COc1ccc([N+](=O)[O-])cc1NC(=O)C(Cl)Cl
inactive: [15] 99 % of control | [16] 100 % of control | [17] 110 % of control

O=C(O)C(Cl)(Br)C(Cl)c1ccccc1 (configuration not stated)
inactive: [5] 93 % of control | [7] 91 % of control | [9] 95 % of control

O=C(Nc1ccc(Cl)c(Cl)c1)Nc1ccc(Cl)c(Cl)c1
inactive: [12] 100 % of control | [13] 90 % of control | [14] 86 % of control

Cc1cccnc1NC1=NCCO1
inactive: [5] 100 % of control | [7] 96 % of control | [9] 93 % of control

COc1cc2c(cc1OC)C(=O)C(c1[nH]c3cc(OC)c(OC)cc3c1O)=N2
inactive: [18] 98 % of control | [1] 98 % of control | [2] 96 % of control | [3] 96 % of control

CCN1CCC(S(=O)(=O)CCS(=O)(=O)C2CCN(CC)C2)C1 (configuration not stated)
inactive: [15] 95 % of control | [16] 94 % of control | [17] 94 % of control

O=C(COc1ccc(Cl)cc1Cl)Oc1c(Cl)c(Cl)c(Cl)c(Cl)c1Cl
inactive: [5] 88 % of control | [6] 91 % of control | [7] 88 % of control | [8] 92 % of control | [9] 92 % of control | [10] 86 % of control

CCC(C)N1OC1c1ccccc1 (configuration not stated)
inactive: [15] 106 % of control | [16] 103 % of control | [17] 101 % of control

O=C1NC(=O)c2ncccc21
inactive: [5] 90 % of control | [6] 87 % of control | [7] 95 % of control | [8] 103 % of control | [9] 97 % of control | [10] 100 % of control

CSc1nc(SC)c2c(ncn2C2OC(CO)C(O)C2O)n1 (configuration not stated)
inactive: [18] 111 % of control | [1] 102 % of control | [2] 104 % of control

CN(C)CC(C)(C)C(=O)c1ccccc1
inactive: endpoint: mean survival time, dose: 25.0 mg/kg/injection, schedule: Q04DX002 (ip), vehicle: saline 100 % of control | endpoint: mean survival time, dose: 50.0 mg/kg/injection, schedule: Q04DX002 (ip), vehicle: saline 100 % of control | endpoint: mean survival time, dose: 100.0 mg/kg/injection, schedule: Q04DX002 (ip), vehicle: saline 104 % of control

S=C(Cc1ccccc1)N1CCCCC1
inactive: endpoint: mean survival time, dose: 100.0 mg/kg/injection, schedule: Q01DX009 (ip), vehicle: Klucel (hydroxypropylcellulose) (HPC) 108 % of control | [11] 100 % of control | [19] 98 % of control | [4] 101 % of control | [20] 95 % of control

Nc1nc(=S)c2nnn(C3OC(CO)C(O)C3O)c2[nH]1 (configuration not stated)
inactive: endpoint: mean survival time, dose: 100.0 mg/kg/injection, schedule: Q01DX001 (ip), vehicle: saline with Tween-80 104 % of control | endpoint: mean survival time, dose: 200.0 mg/kg/injection, schedule: Q01DX001 (ip), vehicle: saline with Tween-80 104 % of control | endpoint: mean survival time, dose: 400.0 mg/kg/injection, schedule: Q01DX001 (ip), vehicle: saline with Tween-80 90 % of control

NC(Cc1ccccc1)C(=O)NCC(=O)NCC(=O)O (stereo not drawn) (H-[ξF]-Gly-Gly-OH)
inactive: [5] 107 % of control | [6] 102 % of control | [7] 91 % of control | [8] 104 % of control | [9] 89 % of control | [10] 98 % of control

CCCCCCCCCCCCSC(=O)Nc1ccc([N+](=O)[O-])cc1Cl
inactive: [19] 107 % of control | [20] 102 % of control

CN(CCO)/N=N/c1[nH]ncc1C(N)=O
active: endpoint: mean survival time, dose: 176.0 mg/kg/injection, schedule: Q01DX009 (ip), vehicle: other 159 % of control | endpoint: mean survival time, dose: 345.0 mg/kg/injection, schedule: Q01DX009 (ip), vehicle: saline with Tween-80 163 % of control | endpoint: mean survival time, dose: 400.0 mg/kg/injection, schedule: Q01DX009 (ip), vehicle: other 159 % of control | endpoint: mean survival time, dose: 600.0 mg/kg/injection, schedule: Q01DX009 (ip), vehicle: other 189 % of control | endpoint: mean survival time, dose: 690.0 mg/kg/injection, schedule: Q01DX009 (ip), vehicle: saline with Tween-80 192 % of control | endpoint: mean survival time, dose: 900.0 mg/kg/injection, schedule: Q01DX009 (ip), vehicle: other 196 % of control | endpoint: median survival time, dose: 250.0 mg/kg/injection, schedule: Q01DX009 (ip), vehicle: saline 156 % of control | endpoint: median survival time, dose: 500.0 mg/kg/injection, schedule: Q01DX009 (ip), vehicle: saline 173 % of control | endpoint: median survival time, dose: 1000.0 mg/kg/injection, schedule: Q01DX009 (ip), vehicle: saline 201 % of control
inactive: endpoint: mean survival time, dose: 54.0 mg/kg/injection, schedule: Q01DX009 (ip), vehicle: other 124 % of control | endpoint: mean survival time, dose: 472.25 mg/kg/injection, schedule: Q01DX001 (ip), vehicle: saline with Tween-80 109 % of control | endpoint: mean survival time, dose: 944.5 mg/kg/injection, schedule: Q01DX001 (ip), vehicle: saline with Tween-80 119 % of control | endpoint: median survival time, dose: 63.0 mg/kg/injection, schedule: Q01DX009 (ip), vehicle: saline 119 % of control

CCCCCCCCC1OC1CCCCCCCC(=O)N1CCN(C)CC1 (configuration not stated)
inactive: endpoint: mean survival time, dose: 75.0 mg/kg/injection, schedule: Q01DX001 (ip), vehicle: carboxymethylcellulose (CMC) 92 % of control | endpoint: mean survival time, dose: 150.0 mg/kg/injection, schedule: Q01DX001 (ip), vehicle: carboxymethylcellulose (CMC) 97 % of control | endpoint: mean survival time, dose: 300.0 mg/kg/injection, schedule: Q01DX001 (ip), vehicle: carboxymethylcellulose (CMC) 91 % of control
